Patent US20260262643A1, “HERBICIDAL BENZOXAZINES” (FMC CORPORATION, priority 2022, published 2026)

Key:
blackgrass [1] = assay: Test A postemergence; format: in vivo, Alopecurus myosuroides; conditions: postemergence, 10 days
In short: (§1)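 Plants were grown in loam and sand and treated preemergence or postemergence (one- to two-leaf stage, 2–10 cm) with compound in solvent plus surfactant. Response was scored against untreated controls after 10 greenhouse days, where 0 means no effect and 100 complete control.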

sedge, umbrella = assay: Test B flooded paddy test; format: in vivo, Cyperus difformis; conditions: 250 g ai/ha, Flood, 13 days, 0 to 100 scale (0 no effect, 100 complete control)
In short: (§2)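 Two-leaf plants, 3 cm flood, in-water application, 13-day greenhouse hold, visual 0–100 rating vs untreated checks.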

oat, wild [2] = assay: Test A postemergence; format: in vivo, Avena fatua; conditions: postemergence, 10 days
In short: as §1

foxtail, giant [3] = assay: Test A postemergence; format: in vivo, Setaria faberi; conditions: postemergence, 10 days
In short: as §1

wheat [4] = assay: Test A preemergence; format: in vivo, Triticum aestivum; conditions: visual injury after 10 days, 0 to 100 scale, 0 is no effect, 100 is complete control
In short: as §1

galium = assay: Test A postemergence; format: in vivo, Galium aparine; conditions: postemergence, 10 days
In short: as §1

oat, wild [5] = assay: Test A preemergence; format: in vivo, Avena fatua; conditions: visual injury after 10 days, 0 to 100 scale, 0 is no effect, 100 is complete control
In short: as §1

foxtail, giant [6] = assay: Test A preemergence; format: in vivo, Setaria faberi; conditions: visual injury after 10 days, 0 to 100 scale, 0 is no effect, 100 is complete control
In short: as §1

barnyardgrass [7] = assay: Test B flooded paddy test; format: in vivo, Echinochloa crus-galli; conditions: 250 g ai/ha, Flood, 13 days, 0 to 100 scale (0 no effect, 100 complete control)
In short: as §2

corn [8] = assay: Test A postemergence; format: in vivo, Zea mays; conditions: postemergence, 10 days
In short: as §1

ryegrass, Italian [9] = assay: Test A postemergence; format: in vivo, Lolium multiflorum; conditions: postemergence, 10 days
In short: as §1

kochia [10] = assay: Test A postemergence; format: in vivo, Bassia scoparia; conditions: postemergence, 10 days
In short: as §1

ryegrass, Italian [11] = assay: Test A preemergence; format: in vivo, Lolium multiflorum; conditions: visual injury after 10 days, 0 to 100 scale, 0 is no effect, 100 is complete control
In short: as §1

blackgrass [12] = assay: Test A preemergence; format: in vivo, Alopecurus myosuroides; conditions: visual injury after 10 days, 0 to 100 scale, 0 is no effect, 100 is complete control
In short: as §1

ducksalad = assay: Test B flooded paddy test; format: in vivo, Heteranthera limosa; conditions: 250 g ai/ha, Flood, 13 days, 0 to 100 scale (0 no effect, 100 complete control)
In short: as §2

horseweed = assay: Test A postemergence; format: in vivo, Erigeron canadensis; conditions: postemergence, 10 days
In short: as §1

pigweed, palmer [13] = assay: Test A preemergence; format: in vivo, Amaranthus palmeri; conditions: visual injury after 10 days, 0 to 100 scale, 0 is no effect, 100 is complete control
In short: as §1

soybean [14] = assay: Test A postemergence; format: in vivo, Glycine max; conditions: postemergence, 10 days
In short: as §1

pigweed, palmer [15] = assay: Test A postemergence; format: in vivo, Amaranthus palmeri; conditions: postemergence, 10 days
In short: as §1

rice = assay: Test B flooded paddy test; format: in vivo, Oryza sativa; conditions: 250 g ai/ha, Flood, 13 days, 0 to 100 scale (0 no effect, 100 complete control)
In short: as §2

barnyardgrass [16] = assay: Test A preemergence; format: in vivo, Echinochloa crusgalli; conditions: visual injury after 10 days, 0 to 100 scale, 0 is no effect, 100 is complete control
In short: as §1

ragweed [17] = assay: Test A preemergence; format: in vivo, Ambrosia artemisiifolia; conditions: visual injury after 10 days, 0 to 100 scale, 0 is no effect, 100 is complete control
In short: as §1

kochia [18] = assay: Test A preemergence; format: in vivo, Bassia scoparia; conditions: visual injury after 10 days, 0 to 100 scale, 0 is no effect, 100 is complete control
In short: as §1

corn [19] = assay: Test A preemergence; format: in vivo, Zea mays; conditions: visual injury after 10 days, 0 to 100 scale, 0 is no effect, 100 is complete control
In short: as §1

wheat [20] = assay: Test A postemergence; format: in vivo, Triticum aestivum; conditions: postemergence, 10 days
In short: as §1

soybean [21] = assay: Test A preemergence; format: in vivo, Glycine max; conditions: visual injury after 10 days, 0 to 100 scale, 0 is no effect, 100 is complete control
In short: as §1

barnyardgrass [22] = assay: Test A postemergence; format: in vivo, Echinochloa crusgalli; conditions: postemergence, 10 days
In short: as §1

ragweed [23] = assay: Test A postemergence; format: in vivo, Ambrosia artemisiifolia; conditions: postemergence, 10 days
In short: as §1

[24] = 125 g ai/ha, 0 to 100 scale, 0 no effect, 100 complete control
[25] = 500 g ai/ha, visual injury, 0 to 100 scale (0 no effect, 100 complete control)

C[C@H]1CN(C(=O)c2cc(Br)cc(-n3cncn3)c2)c2cccc(Cl)c2O1 [Compound 114]
Blackgrass plant response rating (blackgrass [1]; [24]): 50
Plant response rating, Blackgrass (blackgrass [1]; [25]): 90
Plant response rating, Sedge, Umbrella (sedge, umbrella): 0
Oat, Wild plant response rating (oat, wild [2]; [24]): 0
Plant response rating, Oat, Wild (oat, wild [2]; [25]): 40
Foxtail, Giant plant response rating (foxtail, giant [3]; [24]): 70
Plant response rating, Foxtail, Giant (foxtail, giant [3]; [25]): 90
Plant response rating, Wheat (wheat [4]; 125 g ai/ha): 20
Plant response rating, Wheat (wheat [4]; 500 g ai/ha): 50
Galium plant response rating (galium; [24]): 60
Plant response rating, Galium (galium; [25]): 70
Plant response rating, Oat, Wild (oat, wild [5]; 125 g ai/ha): 0
Plant response rating, Oat, Wild (oat, wild [5]; 500 g ai/ha): 20
Plant response rating, Foxtail, Giant (foxtail, giant [6]; 125 g ai/ha): 80
Plant response rating, Foxtail, Giant (foxtail, giant [6]; 500 g ai/ha): 100
Plant response rating, Barnyardgrass (barnyardgrass [7]): 0
Corn plant response rating (corn [8]; [24]): 50
Plant response rating, Corn (corn [8]; [25]): 80
Ryegrass, Italian plant response rating (ryegrass, Italian [9]; [24]): 50
Plant response rating, Ryegrass, Italian (ryegrass, Italian [9]; [25]): 70
Kochia plant response rating (kochia [10]; [24]): 40
Plant response rating, Kochia (kochia [10]; [25]): 80
Plant response rating, Ryegrass, Italian (ryegrass, Italian [11]; 125 g ai/ha): 50
Plant response rating, Ryegrass, Italian (ryegrass, Italian [11]; 500 g ai/ha): 90
Plant response rating, Blackgrass (blackgrass [12]; 125 g ai/ha): 30
Plant response rating, Blackgrass (blackgrass [12]; 500 g ai/ha): 70
Plant response rating, Ducksalad (ducksalad): 0
Horseweed plant response rating (horseweed; [24]): 0
Plant response rating, Horseweed (horseweed; [25]): 0
Plant response rating, Pigweed, Palmer (pigweed, palmer [13]; 125 g ai/ha): 50
Plant response rating, Pigweed, Palmer (pigweed, palmer [13]; 500 g ai/ha): 90
Soybean plant response rating (soybean [14]; [24]): 60
Plant response rating, Soybean (soybean [14]; [25]): 100
Pigweed, Palmer plant response rating (pigweed, palmer [15]; [24]): 40
Plant response rating, Pigweed, Palmer (pigweed, palmer [15]; [25]): 100
Plant response rating, Rice (rice): 0
Plant response rating, Barnyardgrass (barnyardgrass [16]; 125 g ai/ha): 30
Plant response rating, Barnyardgrass (barnyardgrass [16]; 500 g ai/ha): 90
Plant response rating, Ragweed (ragweed [17]; 125 g ai/ha): 0
Plant response rating, Ragweed (ragweed [17]; 500 g ai/ha): 0
Plant response rating, Kochia (kochia [18]; 125 g ai/ha): 0
Plant response rating, Kochia (kochia [18]; 500 g ai/ha): 20
Plant response rating, Corn (corn [19]; 125 g ai/ha): 0
Plant response rating, Corn (corn [19]; 500 g ai/ha): 0
Wheat plant response rating (wheat [20]; [24]): 10
Plant response rating, Wheat (wheat [20]; [25]): 40
Plant response rating, Soybean (soybean [21]; 125 g ai/ha): 0
Plant response rating, Soybean (soybean [21]; 500 g ai/ha): 0
Barnyardgrass plant response rating (barnyardgrass [22]; [24]): 10
Plant response rating, Barnyardgrass (barnyardgrass [22]; [25]): 70
Ragweed plant response rating (ragweed [23]; [24]): 0
Plant response rating, Ragweed (ragweed [23]; [25]): 0
